Experimental findings from patent US10175228B2, “Method of using transmembrane channel-like protein 6 (TMC6) protein to identify substances affecting salty taste” (priority 2016, dated 2019) are described below.

The assay addresses T1, human TMC6 protein (Homo sapiens, UniProt Q7Z403).
T1 construct: expressed in transfected cells; host or cells: CHO-K1
T1 sequence (Q7Z403 1-805): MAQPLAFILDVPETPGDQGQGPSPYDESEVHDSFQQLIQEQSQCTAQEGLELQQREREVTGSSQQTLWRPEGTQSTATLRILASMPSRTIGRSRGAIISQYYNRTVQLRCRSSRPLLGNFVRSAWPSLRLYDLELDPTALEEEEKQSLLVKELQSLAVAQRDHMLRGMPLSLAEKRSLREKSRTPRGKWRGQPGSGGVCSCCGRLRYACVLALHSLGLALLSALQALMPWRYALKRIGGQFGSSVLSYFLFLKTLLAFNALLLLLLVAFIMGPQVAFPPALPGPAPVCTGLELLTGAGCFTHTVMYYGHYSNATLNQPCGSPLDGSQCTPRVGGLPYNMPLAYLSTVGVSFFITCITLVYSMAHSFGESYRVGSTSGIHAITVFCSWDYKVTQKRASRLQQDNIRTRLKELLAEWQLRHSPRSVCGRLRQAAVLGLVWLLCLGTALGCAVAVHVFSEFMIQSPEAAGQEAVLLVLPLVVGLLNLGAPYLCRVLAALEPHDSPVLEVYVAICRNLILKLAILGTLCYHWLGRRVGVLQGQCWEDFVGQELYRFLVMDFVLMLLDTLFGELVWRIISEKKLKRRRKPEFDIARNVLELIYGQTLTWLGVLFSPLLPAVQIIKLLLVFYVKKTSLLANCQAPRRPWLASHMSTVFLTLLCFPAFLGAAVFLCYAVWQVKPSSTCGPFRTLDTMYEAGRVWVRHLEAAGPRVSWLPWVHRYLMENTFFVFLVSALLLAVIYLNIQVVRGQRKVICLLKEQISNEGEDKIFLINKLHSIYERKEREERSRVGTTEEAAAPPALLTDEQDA
Put plainly: Calcium imaging (YC2.60 FRET) of CHO-K1 cells expressing the human TMC6 gene. Type of assay: cell-based. The settings on record: stimulation with high-concentration NaCl solution (135 mM NaCl). The method, then: After the cultivation, the culture broth was removed. A low-concentration NaCl solution (27 mM NaCl, 1 mM KCl, 0.4 mM CaCl2, 0.2 mM MgCl2, 2 mM Hepes (pH7.3), 1 mM NaHCO3, 2 mM glucose, 2 mM sodium pyruvate, and 112 mM NMDG-Cl) was added to the culture dish, incubation was carried out statically for 5 min, and then, stimulation and observation of cells were started. First, the low-concentration NaCl solution was perfused for approximately 80 sec, to provide a ground state. […] The stimulation with the ATP stimulation solution was carried out by dropping 600 μL of the ATP stimulation solution near cells to be measured on the culture dish with a pipet within 3 sec.
Observation of the cells was carried out with a confocal laser microscope FV1200 (Olympus). […] Activation of the cells was measured using the intracellular calcium concentration as an index. The intracellular calcium concentration was measured by calcium imaging using YC2.60. YC2.60 is one of calcium-sensitive fluorescent proteins based on fluorescence resonance energy transfer (FRET). […] When calcium ions bind to YC2.60, FRET from CFP to YFP is induced, and thereby, CFP fluorescence is attenuated and YFP fluorescence is enhanced. That is, a higher intracellular calcium concentration provides a higher YFP/CFP value of a cell, which value represents the ratio of YFP fluorescence intensity with respect to CFP fluorescence intensity. […]

As for `[Cl-].[Na+]` [NaCl, sodium chloride], the “change of YFP/CFP value (intracellular calcium concentration, cell activation)” value is reported as “increase”.
